{"source": "paper PMC8401933", "about": "(Molecules, 2021)", "key": {"[1]": {"system": "3T3-L1 cells", "assay": "Adipocyte differentiation, Oil Red O staining", "type": "cell-based", "details": "for quantity of lipid droplets (ORO staining): CX-4945 5 μM, KD025 3 μM", "method": "The preadipocyte 3T3-L1 cell line was kindly provided by Dr. Hyun-Sung Park (University of Seoul) and cultured in Dulbecco’s modified Eagle’s medium (DMEM, Sigma-Aldrich) supplied with 10% heat-inactivated newborn calf serum (Invitrogen, CA, USA), 100 units/mL penicillin, and 100 µg/mL streptomycin (Cellgro, VA, USA). The cells were maintained in an incubator at 37 °C and 5% CO2. To initiate differentiation, the cells were incubated for additional days after 100% confluence and then further incubated in a medium containing fetal bovine serum (FBS) and a differentiation cocktail (DMI, 1 μM dexamethasone, 0.5 mM 3-isobutyl-1-methylxanthine, and 5 μg/mL insulin) as previously described. In brief, at day 3, the culture medium was replaced with DMEM/10%FBS containing 5 µg/mL insulin. Then, growth medium was changed every 2 days.\nLipid droplets of cells were stained using ORO (Sigma-Aldrich, MA, USA). In brief, the cells were washed with phosphate buffered saline and incubated with 10% formalin for 5 min. The cells were then fixed with the same volume of fresh formalin for at least 1 h. Subsequently, the cells were washed with 60% isopropanol, air dried completely, and then stained with ORO working solution (1% ORO/isopropanol: distilled water = 3:2). The stained cells were washed with water four times. Cell images were taken by a microscope (Nikon Eclipse TS100-F, Japan). Then, 100% isopropanol was added and incubated for 10 min to quantify the intensity of ORO. The quantity of extracted dye was obtained by obtaining absorbance at 540 nm in the Synergy H1 hybrid reader (BioTek, VT, USA)."}, "[2]": {"molecular_target": "T1, CSNK2A1 (Homo sapiens, UniProt P68400)", "T1 construct": "purchased Eurofins DiscoverX KINOMEscan", "assay": "KINOMEscan binding"}, "[3]": {"molecular_target": "T2, RSK1(Kin.Dom.1-N-terminal) (Homo sapiens, UniProt Q15418)", "T2 construct": "RSK1(Kin.Dom.1-N-terminal); purchased Eurofins DiscoverX KINOMEscan", "T2 sequence (Q15418 1-391 limits assumed)": "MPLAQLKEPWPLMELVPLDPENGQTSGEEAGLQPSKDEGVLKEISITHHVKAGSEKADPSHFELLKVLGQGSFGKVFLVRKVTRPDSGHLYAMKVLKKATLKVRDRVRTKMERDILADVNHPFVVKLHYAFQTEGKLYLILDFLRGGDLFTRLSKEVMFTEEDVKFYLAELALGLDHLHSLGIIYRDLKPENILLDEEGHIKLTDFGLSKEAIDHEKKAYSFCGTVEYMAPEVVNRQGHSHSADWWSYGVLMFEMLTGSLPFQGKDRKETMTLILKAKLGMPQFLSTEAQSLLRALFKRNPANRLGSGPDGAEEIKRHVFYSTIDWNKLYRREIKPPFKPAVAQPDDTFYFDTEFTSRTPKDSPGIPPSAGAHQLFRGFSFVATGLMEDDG", "assay": "KINOMEscan binding", "details": "read-out: Percent Control"}, "[4]": {"molecular_target": "T3, SNRK (Homo sapiens, UniProt Q9NRH2)", "T3 construct": "purchased Eurofins DiscoverX KINOMEscan", "assay": "KINOMEscan binding", "details": "read-out: Percent Control"}, "[5]": {"molecular_target": "T4, TTK (Homo sapiens, UniProt P33981)", "T4 construct": "purchased Eurofins DiscoverX KINOMEscan", "assay": "KINOMEscan binding", "details": "read-out: Percent Control"}, "[6]": {"molecular_target": "T5, RSK3(Kin.Dom.1-N-terminal) (Homo sapiens, UniProt Q15349)", "T5 construct": "RSK3(Kin.Dom.1-N-terminal); purchased Eurofins DiscoverX KINOMEscan", "T5 sequence (Q15349 1-414 limits assumed)": "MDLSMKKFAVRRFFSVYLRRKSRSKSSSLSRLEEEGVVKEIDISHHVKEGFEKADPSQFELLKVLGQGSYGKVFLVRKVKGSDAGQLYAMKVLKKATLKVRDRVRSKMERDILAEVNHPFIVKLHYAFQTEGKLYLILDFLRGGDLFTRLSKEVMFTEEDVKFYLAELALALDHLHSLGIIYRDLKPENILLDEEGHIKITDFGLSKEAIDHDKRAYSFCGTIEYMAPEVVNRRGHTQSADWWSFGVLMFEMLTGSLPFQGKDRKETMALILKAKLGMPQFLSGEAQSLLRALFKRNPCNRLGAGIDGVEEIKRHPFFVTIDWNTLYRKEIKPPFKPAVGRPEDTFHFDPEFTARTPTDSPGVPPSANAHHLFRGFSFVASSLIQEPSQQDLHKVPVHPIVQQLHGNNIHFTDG", "assay": "KINOMEscan binding", "details": "read-out: Percent Control"}, "[7]": {"molecular_target": "T6, PIK3CD (Homo sapiens, UniProt O00329)", "T6 construct": "purchased Eurofins DiscoverX KINOMEscan", "assay": "KINOMEscan binding", "details": "read-out: Percent Control"}, "[8]": {"molecular_target": "T7, LATS1 (Homo sapiens, UniProt O95835)", "T7 construct": "purchased Eurofins DiscoverX KINOMEscan", "assay": "KINOMEscan binding", "details": "read-out: Percent Control"}, "[9]": {"molecular_target": "T8, FYN (Homo sapiens, UniProt P06241)", "T8 construct": "purchased Eurofins DiscoverX KINOMEscan", "assay": "KINOMEscan binding", "details": "read-out: Percent Control"}, "[10]": {"molecular_target": "T9, PIK3CA(E545A) (Homo sapiens, UniProt P42336, E545A)", "T9 construct": "purchased Eurofins DiscoverX KINOMEscan", "assay": "KINOMEscan binding", "details": "read-out: Percent Control"}, "[11]": {"molecular_target": "T10, AXL (Homo sapiens, UniProt P30530)", "T10 construct": "purchased Eurofins DiscoverX KINOMEscan", "assay": "KINOMEscan binding", "details": "read-out: Percent Control"}, "[12]": {"molecular_target": "T11, RET(V804L) (Homo sapiens, UniProt P07949, V804L)", "T11 construct": "purchased Eurofins DiscoverX KINOMEscan", "T11 sequence (P07949 29-1114 V804L)": "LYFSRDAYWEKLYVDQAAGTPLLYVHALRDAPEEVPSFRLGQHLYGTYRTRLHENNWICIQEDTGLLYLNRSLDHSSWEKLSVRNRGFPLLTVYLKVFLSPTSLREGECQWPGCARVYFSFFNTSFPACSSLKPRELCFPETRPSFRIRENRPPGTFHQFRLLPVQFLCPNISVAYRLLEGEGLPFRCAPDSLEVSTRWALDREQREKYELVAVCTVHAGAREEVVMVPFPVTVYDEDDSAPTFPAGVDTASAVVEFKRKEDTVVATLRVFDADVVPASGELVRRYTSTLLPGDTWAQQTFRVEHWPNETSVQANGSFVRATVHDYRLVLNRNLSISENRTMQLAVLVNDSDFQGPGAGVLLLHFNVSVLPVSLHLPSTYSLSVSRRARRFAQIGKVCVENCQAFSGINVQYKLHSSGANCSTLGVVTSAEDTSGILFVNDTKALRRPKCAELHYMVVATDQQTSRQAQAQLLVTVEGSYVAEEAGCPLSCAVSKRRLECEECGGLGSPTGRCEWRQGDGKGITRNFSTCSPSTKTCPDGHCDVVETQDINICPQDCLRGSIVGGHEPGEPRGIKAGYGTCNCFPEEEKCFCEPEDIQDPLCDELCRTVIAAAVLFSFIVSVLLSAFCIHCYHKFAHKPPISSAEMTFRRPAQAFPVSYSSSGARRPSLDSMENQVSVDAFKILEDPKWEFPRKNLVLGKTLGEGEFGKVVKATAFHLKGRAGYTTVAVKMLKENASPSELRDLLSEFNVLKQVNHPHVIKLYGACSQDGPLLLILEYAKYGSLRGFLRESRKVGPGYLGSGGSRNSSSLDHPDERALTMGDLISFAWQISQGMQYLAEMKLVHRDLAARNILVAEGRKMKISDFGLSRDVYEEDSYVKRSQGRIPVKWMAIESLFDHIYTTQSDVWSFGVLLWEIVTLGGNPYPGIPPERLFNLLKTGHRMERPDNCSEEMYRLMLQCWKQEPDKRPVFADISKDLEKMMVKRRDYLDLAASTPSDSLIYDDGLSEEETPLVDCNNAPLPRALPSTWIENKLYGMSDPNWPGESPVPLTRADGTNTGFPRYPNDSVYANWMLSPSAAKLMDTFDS", "assay": "KINOMEscan binding", "details": "read-out: Percent Control"}, "[13]": {"molecular_target": "T12, MKNK1 (Homo sapiens, UniProt Q9BUB5)", "T12 construct": "purchased Eurofins DiscoverX KINOMEscan", "assay": "KINOMEscan binding", "details": "read-out: Percent Control"}, "[14]": {"molecular_target": "T13, HIPK4 (Homo sapiens, UniProt Q8NE63)", "T13 construct": "purchased Eurofins DiscoverX KINOMEscan", "assay": "KINOMEscan binding", "details": "read-out: Percent Control"}, "[15]": {"molecular_target": "T14, CASK (Homo sapiens, UniProt O14936)", "T14 construct": "purchased Eurofins DiscoverX KINOMEscan", "assay": "KINOMEscan binding", "details": "read-out: Percent Control"}, "[16]": {"molecular_target": "T15, FLT3-autoinhibited (Homo sapiens, UniProt P36888)", "T15 construct": "purchased Eurofins DiscoverX KINOMEscan", "assay": "KINOMEscan binding", "details": "read-out: Percent Control"}, "[17]": {"molecular_target": "T16, MINK (Homo sapiens, UniProt Q8N4C8)", "T16 construct": "purchased Eurofins DiscoverX KINOMEscan", "assay": "KINOMEscan binding", "details": "read-out: Percent Control"}, "[18]": {"molecular_target": "T17, SNARK (Homo sapiens, UniProt Q9H093)", "T17 construct": "purchased Eurofins DiscoverX KINOMEscan", "assay": "KINOMEscan binding", "details": "read-out: Percent Control"}, "[19]": {"molecular_target": "T18, NDR2 (Homo sapiens, UniProt Q9Y2H1)", "T18 construct": "purchased Eurofins DiscoverX KINOMEscan", "assay": "KINOMEscan binding", "details": "read-out: Percent Control"}, "[20]": {"molecular_target": "T19, DCAMKL1 (Homo sapiens, UniProt O15075)", "T19 construct": "purchased Eurofins DiscoverX KINOMEscan", "assay": "KINOMEscan binding", "details": "read-out: Percent Control"}, "[21]": {"molecular_target": "T20, YANK1 (Homo sapiens, UniProt Q8WU08)", "T20 construct": "purchased Eurofins DiscoverX KINOMEscan", "assay": "KINOMEscan binding", "details": "read-out: Percent Control"}, "[22]": {"molecular_target": "T21, PRKX (Homo sapiens, UniProt P51817)", "T21 construct": "purchased Eurofins DiscoverX KINOMEscan", "assay": "KINOMEscan binding", "details": "read-out: Percent Control"}, "[23]": {"molecular_target": "T22, TYK2(JH2domain-pseudokinase) (Homo sapiens, UniProt P29597)", "T22 construct": "TYK2(JH2domain-pseudokinase); purchased Eurofins DiscoverX KINOMEscan", "T22 sequence (P29597 556-888 limits assumed)": "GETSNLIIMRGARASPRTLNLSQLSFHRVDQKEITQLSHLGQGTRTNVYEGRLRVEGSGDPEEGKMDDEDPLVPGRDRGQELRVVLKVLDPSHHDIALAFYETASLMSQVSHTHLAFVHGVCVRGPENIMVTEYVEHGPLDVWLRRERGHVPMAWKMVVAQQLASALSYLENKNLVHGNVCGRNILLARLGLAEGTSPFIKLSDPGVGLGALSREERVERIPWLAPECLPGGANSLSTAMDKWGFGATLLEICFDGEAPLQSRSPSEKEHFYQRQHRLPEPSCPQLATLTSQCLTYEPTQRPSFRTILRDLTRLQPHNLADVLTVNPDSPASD", "assay": "KINOMEscan binding", "details": "read-out: Percent Control"}, "[24]": {"molecular_target": "T23, PKMYT1 (Homo sapiens, UniProt Q99640)", "T23 construct": "purchased Eurofins DiscoverX KINOMEscan", "assay": "KINOMEscan binding", "details": "read-out: Percent Control"}, "[25]": {"molecular_target": "T24, NEK9 (Homo sapiens, UniProt Q8TD19)", "T24 construct": "purchased Eurofins DiscoverX KINOMEscan", "assay": "KINOMEscan binding", "details": "read-out: Percent Control"}, "[26]": {"molecular_target": "T25, PIM2 (Homo sapiens, UniProt Q9P1W9)", "T25 construct": "purchased Eurofins DiscoverX KINOMEscan", "assay": "KINOMEscan binding", "details": "read-out: Percent Control"}, "[27]": {"molecular_target": "T26, ABL1(T315I)-phosphorylated (Homo sapiens, UniProt P00519, T315I)", "T26 construct": "purchased Eurofins DiscoverX KINOMEscan", "assay": "KINOMEscan binding", "details": "read-out: Percent Control"}, "[28]": {"molecular_target": "T27, ERK8 (Homo sapiens, UniProt Q8TD08)", "T27 construct": "purchased Eurofins DiscoverX KINOMEscan", "assay": "KINOMEscan binding", "details": "read-out: Percent Control"}, "[29]": {"molecular_target": "T28, ABL1(F317I)-nonphosphorylated (Homo sapiens, UniProt P00519, F317I)", "T28 construct": "purchased Eurofins DiscoverX KINOMEscan", "assay": "KINOMEscan binding", "details": "read-out: Percent Control"}, "[30]": {"molecular_target": "T29, CDK8 (Homo sapiens, UniProt P49336)", "T29 construct": "purchased Eurofins DiscoverX KINOMEscan", "T29 sequence (P49336 whole entry)": "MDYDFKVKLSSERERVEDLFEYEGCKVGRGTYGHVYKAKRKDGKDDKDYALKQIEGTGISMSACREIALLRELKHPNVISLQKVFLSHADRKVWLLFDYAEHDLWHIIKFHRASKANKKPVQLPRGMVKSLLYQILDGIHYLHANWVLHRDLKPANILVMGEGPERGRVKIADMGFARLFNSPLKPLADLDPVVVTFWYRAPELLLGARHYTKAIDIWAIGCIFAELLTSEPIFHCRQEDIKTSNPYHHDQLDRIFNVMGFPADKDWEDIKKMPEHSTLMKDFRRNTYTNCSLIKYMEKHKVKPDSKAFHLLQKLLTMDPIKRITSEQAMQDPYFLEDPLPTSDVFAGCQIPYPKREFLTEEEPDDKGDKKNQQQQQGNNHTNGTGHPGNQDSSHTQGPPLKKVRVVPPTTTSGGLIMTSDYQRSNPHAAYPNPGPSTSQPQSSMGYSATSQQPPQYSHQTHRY", "assay": "KINOMEscan binding", "details": "read-out: Percent Control"}, "[31]": {"molecular_target": "T30, ASK1 (Homo sapiens, UniProt Q99683)", "T30 construct": "purchased Eurofins DiscoverX KINOMEscan", "T30 sequence (Q99683 whole entry)": "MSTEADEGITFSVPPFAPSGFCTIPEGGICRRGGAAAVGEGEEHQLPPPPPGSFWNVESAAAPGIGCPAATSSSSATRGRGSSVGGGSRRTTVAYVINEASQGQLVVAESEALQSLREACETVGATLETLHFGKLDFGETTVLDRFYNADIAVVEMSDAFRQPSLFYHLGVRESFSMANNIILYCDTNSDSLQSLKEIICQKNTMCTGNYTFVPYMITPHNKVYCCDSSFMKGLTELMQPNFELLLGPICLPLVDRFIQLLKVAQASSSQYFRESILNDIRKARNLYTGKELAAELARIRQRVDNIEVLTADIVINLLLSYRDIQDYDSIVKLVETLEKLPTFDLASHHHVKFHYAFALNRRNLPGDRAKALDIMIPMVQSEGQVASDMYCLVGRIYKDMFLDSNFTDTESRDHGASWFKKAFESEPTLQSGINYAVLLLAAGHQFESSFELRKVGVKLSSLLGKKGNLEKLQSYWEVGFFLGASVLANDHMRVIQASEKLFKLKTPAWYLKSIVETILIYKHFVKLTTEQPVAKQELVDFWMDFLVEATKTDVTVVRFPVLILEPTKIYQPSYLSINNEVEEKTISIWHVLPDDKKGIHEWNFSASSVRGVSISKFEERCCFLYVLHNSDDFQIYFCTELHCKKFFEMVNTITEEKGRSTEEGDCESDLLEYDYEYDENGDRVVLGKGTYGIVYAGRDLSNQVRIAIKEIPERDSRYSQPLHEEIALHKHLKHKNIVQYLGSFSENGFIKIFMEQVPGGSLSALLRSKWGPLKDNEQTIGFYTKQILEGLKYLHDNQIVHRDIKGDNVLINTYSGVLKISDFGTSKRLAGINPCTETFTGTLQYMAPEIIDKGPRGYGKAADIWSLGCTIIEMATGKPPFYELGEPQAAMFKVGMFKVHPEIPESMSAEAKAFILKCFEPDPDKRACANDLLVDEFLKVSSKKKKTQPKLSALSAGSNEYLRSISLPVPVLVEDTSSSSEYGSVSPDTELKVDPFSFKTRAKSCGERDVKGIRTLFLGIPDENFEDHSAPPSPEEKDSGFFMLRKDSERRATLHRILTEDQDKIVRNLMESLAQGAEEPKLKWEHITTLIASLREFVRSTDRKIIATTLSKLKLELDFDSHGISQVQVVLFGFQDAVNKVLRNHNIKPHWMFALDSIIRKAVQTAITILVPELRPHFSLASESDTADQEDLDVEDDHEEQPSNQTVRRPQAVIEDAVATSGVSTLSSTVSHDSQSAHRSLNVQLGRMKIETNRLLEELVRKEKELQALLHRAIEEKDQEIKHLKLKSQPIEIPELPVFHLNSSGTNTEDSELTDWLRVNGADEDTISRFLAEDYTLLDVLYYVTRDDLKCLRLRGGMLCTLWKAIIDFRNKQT", "assay": "KINOMEscan binding", "details": "read-out: Percent Control"}, "[32]": {"molecular_target": "T31, TRKC (Homo sapiens, UniProt Q16288)", "T31 construct": "purchased Eurofins DiscoverX KINOMEscan", "T31 sequence (Q16288 32-839)": "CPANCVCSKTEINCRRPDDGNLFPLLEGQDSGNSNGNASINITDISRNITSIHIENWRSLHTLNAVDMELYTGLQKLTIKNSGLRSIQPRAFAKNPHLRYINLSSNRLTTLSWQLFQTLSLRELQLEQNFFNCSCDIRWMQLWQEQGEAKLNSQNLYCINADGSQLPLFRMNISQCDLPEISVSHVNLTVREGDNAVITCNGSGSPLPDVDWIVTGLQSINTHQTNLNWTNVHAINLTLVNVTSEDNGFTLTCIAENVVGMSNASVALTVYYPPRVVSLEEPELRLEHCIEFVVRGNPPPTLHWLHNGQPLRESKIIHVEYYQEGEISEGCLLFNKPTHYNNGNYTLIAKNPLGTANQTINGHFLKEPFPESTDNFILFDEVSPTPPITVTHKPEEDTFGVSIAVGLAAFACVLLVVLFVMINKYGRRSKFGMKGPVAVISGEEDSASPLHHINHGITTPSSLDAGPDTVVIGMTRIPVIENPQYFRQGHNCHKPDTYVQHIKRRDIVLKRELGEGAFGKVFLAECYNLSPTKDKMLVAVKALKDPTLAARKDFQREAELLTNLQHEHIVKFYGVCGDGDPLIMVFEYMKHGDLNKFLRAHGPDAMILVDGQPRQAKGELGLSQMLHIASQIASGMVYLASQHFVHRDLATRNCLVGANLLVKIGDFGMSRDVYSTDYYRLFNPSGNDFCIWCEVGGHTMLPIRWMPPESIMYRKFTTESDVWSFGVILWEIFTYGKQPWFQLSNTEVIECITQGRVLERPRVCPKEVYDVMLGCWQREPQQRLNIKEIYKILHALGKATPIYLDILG", "assay": "KINOMEscan binding", "details": "read-out: Percent Control"}}, "note": "“Also recorded” adds a separate entry of the source.", "data": [{"smiles": "CC(C)NC(=O)COc1cccc(-c2nc(Nc3ccc4[nH]ncc4c3)c3ccccc3n2)c1", "note": "[KD025, 2-(3-(4-((1H-indazol-5-yl)amino)quinazolin-2-yl)phenoxy)-N-isopropylacetamide]", "values": [{"measurement": "lipid accumulation / adipocyte differentiation (ORO staining)", "setting": "[1]; 3T3-L1, treated during differentiation, stained at day 8", "result": "suppressed the generation of lipid droplets; also recorded: reduces fat accumulation"}, {"measurement": "quantity of lipid droplets (ORO staining)", "setting": "[1]; 3T3-L1, treated during the early (days 0–1) or late (days 5–8) stage", "result": "ineffective; also recorded: lesser effect"}, {"measurement": "quantity of lipid droplets (ORO staining)", "setting": "[1]; 3T3-L1, treated during the intermediate stage (days 1–3)", "result": "acted specifically in the middle stage; also recorded: significantly reduced"}, {"measurement": "CK2α and CK2α’ inhibited less than ROCK2 (POC)", "setting": "[2]; 10 μM", "result": 10, "unit": "fold"}, {"measurement": "remaining binding at 10 µM", "setting": "[2]; CSNK2A1, read-out: Percent Control", "result": 0.5, "unit": "%"}, {"measurement": "remaining binding at 10 µM", "setting": "[3]", "result": 7.8, "unit": "%"}, {"measurement": "remaining binding at 10 µM", "setting": "[4]", "result": 14, "unit": "%"}, {"measurement": "remaining binding at 10 µM", "setting": "[5]", "result": 28, "unit": "%"}, {"measurement": "remaining binding at 10 µM", "setting": "[6]", "result": 31, "unit": "%"}, {"measurement": "remaining binding at 10 µM", "setting": "[7]", "result": 41, "unit": "%"}, {"measurement": "remaining binding at 10 µM", "setting": "[8]", "result": 48, "unit": "%"}, {"measurement": "remaining binding at 10 µM", "setting": "[9]", "result": 61, "unit": "%"}, {"measurement": "remaining binding at 10 µM", "setting": "[10]", "result": 65, "unit": "%"}, {"measurement": "remaining binding at 10 µM", "setting": "[11]", "result": 66, "unit": "%"}, {"measurement": "remaining binding at 10 µM", "setting": "[12]", "result": 67, "unit": "%"}, {"measurement": "remaining binding at 10 µM", "setting": "[13]", "result": 68, "unit": "%"}, {"measurement": "remaining binding at 10 µM", "setting": "[14]", "result": 69, "unit": "%"}, {"measurement": "remaining binding at 10 µM", "setting": "[15]", "result": 70, "unit": "%"}, {"measurement": "remaining binding at 10 µM", "setting": "[16]", "result": 71, "unit": "%"}, {"measurement": "remaining binding at 10 µM", "setting": "[17]", "result": 71, "unit": "%"}, {"measurement": "remaining binding at 10 µM", "setting": "[18]", "result": 71, "unit": "%"}, {"measurement": "remaining binding at 10 µM", "setting": "[19]", "result": 77, "unit": "%"}, {"measurement": "remaining binding at 10 µM", "setting": "[20]", "result": 79, "unit": "%"}, {"measurement": "remaining binding at 10 µM", "setting": "[21]", "result": 80, "unit": "%"}, {"measurement": "remaining binding at 10 µM", "setting": "[22]", "result": 81, "unit": "%"}, {"measurement": "remaining binding at 10 µM", "setting": "[23]", "result": 81, "unit": "%"}, {"measurement": "remaining binding at 10 µM", "setting": "[24]", "result": 83, "unit": "%"}, {"measurement": "remaining binding at 10 µM", "setting": "[25]", "result": 85, "unit": "%"}, {"measurement": "remaining binding at 10 µM", "setting": "[26]", "result": 85, "unit": "%"}, {"measurement": "remaining binding at 10 µM", "setting": "[27]", "result": 93, "unit": "%"}, {"measurement": "remaining binding at 10 µM", "setting": "[28]", "result": 93, "unit": "%"}, {"measurement": "remaining binding at 10 µM", "setting": "[29]", "result": 98, "unit": "%"}, {"measurement": "remaining binding at 10 µM", "setting": "[30]", "result": 98, "unit": "%"}, {"measurement": "remaining binding at 10 µM", "setting": "[31]", "result": 100, "unit": "%"}, {"measurement": "remaining binding at 10 µM", "setting": "[32]", "result": 100, "unit": "%"}]}]}
